The values that follow come from ChEMBL document CHEMBL3588745, “Optimization of ADME Properties for Sulfonamides Leading to the Discovery of a T-Type Calcium Channel Blocker, ABT-639” (ACS Med Chem Lett, 2015).

Series [1] relates to Rattus norvegicus. In words: Antinociceptive activity in Sprague-Dawley rat model of capsaicin-induced secondary mechanical hyperalgesia model assessed as attenuation of nociception at 500 uM/kg, ip administered 1 hr before behavioral testing by von Frey filaments test. Type of series: functional, organism-based.
Series [2] can be described thus: Stability in rat liver microsomes assessed as compound remaining at 1 uM after 30 mins. Type of series: ADME. Conditions: read-out: Stability. (In general: Liver microsomes are vesicles of endoplasmic reticulum, rich in cytochrome P450 enzymes.)
A short description of series [3]: Terminal phase volume of distribution in rat at 5 uM/kg, iv or 30 uM/kg, po. In kind it is ADME, organism-based. The note with it: in vivo, read-out: Vbeta.
Series [4] is described as follows: Plasma clearance in rat at 5 uM/kg, iv or 30 uM/kg, po. Type of series: ADME, organism-based.
Series [5] deals with T1, Voltage-dependent T-type calcium channel subunit alpha-1H (Homo sapiens, UniProt O95180). Kind of series: Inhibition of human recombinant Cav3.2 channel.
Series [6] in a line: Stability in human liver microsomes assessed as compound remaining at 1 uM after 30 mins. Type of series: ADME. The note with it: read-out: Stability.
Series [7] addresses T1, Voltage-dependent T-type calcium channel subunit alpha-1H. In words: Inhibition of human recombinant Cav3.2 channel at 10 uM.
Series [8] is described as follows: Stability in dog liver microsomes assessed as compound remaining at 1 uM after 30 mins. In kind it is ADME, Canis lupus familiaris. The note with it: read-out: Stability.
Series [9] in a line: Stability in monkey liver microsomes assessed as compound remaining at 1 uM after 30 mins. In kind it is ADME, Macaca mulatta. Conditions: rhesus monkey, read-out: Stability.
Series [10] deals with Voltage-dependent T-type calcium channel subunit alpha-1H (Rattus norvegicus, UniProt Q9EQ60). Kind of series: Inhibition of Cav3.2 channel in rat DRG neurons assessed as reduction in LVA currents.
Series [11] in a line: Aqueous solubility in phosphate buffer at pH 7.4. Type of series: physicochemical.
Series [12] is described as follows: Solubility in 0.1 HCl solution. In kind it is physicochemical.
Series [13] in a line: Protein binding in rat. In kind it is ADME, organism-based. The note with it: plasma, read-out: PB (converted).
A short description of series [14]: Protein binding in human. In kind it is ADME, organism-based. Conditions: plasma, read-out: PB (converted).
For series [15], the target named is T2, Nuclear receptor subfamily 1 group I member 2 (Homo sapiens, UniProt O75469).
T2 sequence (O75469 whole entry): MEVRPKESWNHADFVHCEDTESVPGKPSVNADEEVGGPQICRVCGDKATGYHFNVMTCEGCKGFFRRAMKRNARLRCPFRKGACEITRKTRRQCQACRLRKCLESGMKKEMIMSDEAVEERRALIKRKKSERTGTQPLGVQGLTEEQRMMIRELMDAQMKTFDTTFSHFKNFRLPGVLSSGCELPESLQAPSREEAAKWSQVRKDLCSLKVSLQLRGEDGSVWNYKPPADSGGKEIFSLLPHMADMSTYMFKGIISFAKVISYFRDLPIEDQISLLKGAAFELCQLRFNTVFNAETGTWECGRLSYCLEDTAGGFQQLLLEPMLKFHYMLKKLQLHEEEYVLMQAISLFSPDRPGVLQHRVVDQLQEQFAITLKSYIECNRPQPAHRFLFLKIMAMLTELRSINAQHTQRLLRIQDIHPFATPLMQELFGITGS
Kind of series: Activation of PXR (unknown origin) assessed as induction of CYP3A4. In kind it is ADME.

Series [16] has as its target T3, Aryl hydrocarbon receptor (Homo sapiens, UniProt P35869).
T3 sequence (P35869 whole entry): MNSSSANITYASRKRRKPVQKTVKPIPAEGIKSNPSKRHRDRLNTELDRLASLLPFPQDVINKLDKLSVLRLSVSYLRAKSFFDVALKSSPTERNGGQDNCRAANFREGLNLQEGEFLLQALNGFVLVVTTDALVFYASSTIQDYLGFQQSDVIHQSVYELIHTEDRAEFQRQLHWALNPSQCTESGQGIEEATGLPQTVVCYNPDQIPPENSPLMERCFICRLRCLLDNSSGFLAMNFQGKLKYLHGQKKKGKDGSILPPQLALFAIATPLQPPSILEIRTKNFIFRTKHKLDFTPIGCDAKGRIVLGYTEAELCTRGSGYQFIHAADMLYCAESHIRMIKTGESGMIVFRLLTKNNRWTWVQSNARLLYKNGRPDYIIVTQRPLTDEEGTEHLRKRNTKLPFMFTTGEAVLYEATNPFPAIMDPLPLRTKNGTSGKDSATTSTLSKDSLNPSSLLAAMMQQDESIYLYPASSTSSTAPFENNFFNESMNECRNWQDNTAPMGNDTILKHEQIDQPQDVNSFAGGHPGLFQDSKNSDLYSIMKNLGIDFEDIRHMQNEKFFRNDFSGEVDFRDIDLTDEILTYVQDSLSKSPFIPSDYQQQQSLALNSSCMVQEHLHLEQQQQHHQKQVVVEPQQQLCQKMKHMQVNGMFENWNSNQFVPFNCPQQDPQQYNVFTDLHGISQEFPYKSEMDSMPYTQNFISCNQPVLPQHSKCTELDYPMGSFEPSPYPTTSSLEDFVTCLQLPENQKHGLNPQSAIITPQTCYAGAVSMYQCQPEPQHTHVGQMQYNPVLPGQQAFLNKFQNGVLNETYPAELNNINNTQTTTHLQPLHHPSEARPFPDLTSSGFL
In words: Activation of aryl hydrocarbon receptor (unknown origin) assessed as induction of CYP1A2 mRNA expression. In kind it is ADME.

Series [17] relates to Rattus norvegicus. Kind of series: Antinociceptive activity in Sprague-Dawley rat model of capsaicin-induced secondary mechanical hyperalgesia model assessed as attenuation of nociception at 3 to 100 mg/kg, po administered 1 hr before behavioral testing by von Frey filaments test. Type of series: functional, organism-based.
Series [18] concerns Rattus norvegicus. Kind of series: Toxicity in orally dosed Sprague-Dawley rat assessed effect on animal balance by Edge test. The note with it: in vivo, po. In kind it is organism-based.
The subject of series [19] is Rattus norvegicus. In words: Toxicity in orally dosed Sprague-Dawley rat assessed effect on animal motor performance by Edge test. In kind it is organism-based. The note with it: in vivo, po.
For a further series, the system named is Plasma. In words: Plasma concentration in Sprague-Dawley rat at 30 mg/kg, iv. The note with it: in vivo. Type of series: ADME, organism-based.
Series [20] relates to Rattus norvegicus. In words: Cardiovascular toxicity in Sprague-Dawley rat at 30 mg/kg, iv assessed as induction of changes in mean arterial pressure. In kind it is organism-based, Artery. Conditions: in vivo.
In series [21] the test system is Rattus norvegicus. Kind of series: Cardiovascular toxicity in Sprague-Dawley rat at 30 mg/kg, iv assessed as induction of changes in heart rate. In kind it is organism-based. The note with it: in vivo.
In series [22] the test system is Rattus norvegicus. In words: Cardiovascular toxicity in Sprague-Dawley rat at 30 mg/kg, iv assessed as induction of changes in left ventricular contractility. In kind it is organism-based, Heart left ventricle. Conditions: in vivo.
Series [23] deals with Rattus norvegicus. In words: Cardiovascular toxicity in Sprague-Dawley rat at 30 mg/kg, iv assessed as induction of changes in vascular resistance. In kind it is organism-based. The note with it: in vivo.

“And” between values parts separate entries of the source, which are not always exact repeats. Equal entries are not always repeated. The source made the active and inactive calls. The rule behind the calls is not given here.

T1 sequence (O95180 whole entry): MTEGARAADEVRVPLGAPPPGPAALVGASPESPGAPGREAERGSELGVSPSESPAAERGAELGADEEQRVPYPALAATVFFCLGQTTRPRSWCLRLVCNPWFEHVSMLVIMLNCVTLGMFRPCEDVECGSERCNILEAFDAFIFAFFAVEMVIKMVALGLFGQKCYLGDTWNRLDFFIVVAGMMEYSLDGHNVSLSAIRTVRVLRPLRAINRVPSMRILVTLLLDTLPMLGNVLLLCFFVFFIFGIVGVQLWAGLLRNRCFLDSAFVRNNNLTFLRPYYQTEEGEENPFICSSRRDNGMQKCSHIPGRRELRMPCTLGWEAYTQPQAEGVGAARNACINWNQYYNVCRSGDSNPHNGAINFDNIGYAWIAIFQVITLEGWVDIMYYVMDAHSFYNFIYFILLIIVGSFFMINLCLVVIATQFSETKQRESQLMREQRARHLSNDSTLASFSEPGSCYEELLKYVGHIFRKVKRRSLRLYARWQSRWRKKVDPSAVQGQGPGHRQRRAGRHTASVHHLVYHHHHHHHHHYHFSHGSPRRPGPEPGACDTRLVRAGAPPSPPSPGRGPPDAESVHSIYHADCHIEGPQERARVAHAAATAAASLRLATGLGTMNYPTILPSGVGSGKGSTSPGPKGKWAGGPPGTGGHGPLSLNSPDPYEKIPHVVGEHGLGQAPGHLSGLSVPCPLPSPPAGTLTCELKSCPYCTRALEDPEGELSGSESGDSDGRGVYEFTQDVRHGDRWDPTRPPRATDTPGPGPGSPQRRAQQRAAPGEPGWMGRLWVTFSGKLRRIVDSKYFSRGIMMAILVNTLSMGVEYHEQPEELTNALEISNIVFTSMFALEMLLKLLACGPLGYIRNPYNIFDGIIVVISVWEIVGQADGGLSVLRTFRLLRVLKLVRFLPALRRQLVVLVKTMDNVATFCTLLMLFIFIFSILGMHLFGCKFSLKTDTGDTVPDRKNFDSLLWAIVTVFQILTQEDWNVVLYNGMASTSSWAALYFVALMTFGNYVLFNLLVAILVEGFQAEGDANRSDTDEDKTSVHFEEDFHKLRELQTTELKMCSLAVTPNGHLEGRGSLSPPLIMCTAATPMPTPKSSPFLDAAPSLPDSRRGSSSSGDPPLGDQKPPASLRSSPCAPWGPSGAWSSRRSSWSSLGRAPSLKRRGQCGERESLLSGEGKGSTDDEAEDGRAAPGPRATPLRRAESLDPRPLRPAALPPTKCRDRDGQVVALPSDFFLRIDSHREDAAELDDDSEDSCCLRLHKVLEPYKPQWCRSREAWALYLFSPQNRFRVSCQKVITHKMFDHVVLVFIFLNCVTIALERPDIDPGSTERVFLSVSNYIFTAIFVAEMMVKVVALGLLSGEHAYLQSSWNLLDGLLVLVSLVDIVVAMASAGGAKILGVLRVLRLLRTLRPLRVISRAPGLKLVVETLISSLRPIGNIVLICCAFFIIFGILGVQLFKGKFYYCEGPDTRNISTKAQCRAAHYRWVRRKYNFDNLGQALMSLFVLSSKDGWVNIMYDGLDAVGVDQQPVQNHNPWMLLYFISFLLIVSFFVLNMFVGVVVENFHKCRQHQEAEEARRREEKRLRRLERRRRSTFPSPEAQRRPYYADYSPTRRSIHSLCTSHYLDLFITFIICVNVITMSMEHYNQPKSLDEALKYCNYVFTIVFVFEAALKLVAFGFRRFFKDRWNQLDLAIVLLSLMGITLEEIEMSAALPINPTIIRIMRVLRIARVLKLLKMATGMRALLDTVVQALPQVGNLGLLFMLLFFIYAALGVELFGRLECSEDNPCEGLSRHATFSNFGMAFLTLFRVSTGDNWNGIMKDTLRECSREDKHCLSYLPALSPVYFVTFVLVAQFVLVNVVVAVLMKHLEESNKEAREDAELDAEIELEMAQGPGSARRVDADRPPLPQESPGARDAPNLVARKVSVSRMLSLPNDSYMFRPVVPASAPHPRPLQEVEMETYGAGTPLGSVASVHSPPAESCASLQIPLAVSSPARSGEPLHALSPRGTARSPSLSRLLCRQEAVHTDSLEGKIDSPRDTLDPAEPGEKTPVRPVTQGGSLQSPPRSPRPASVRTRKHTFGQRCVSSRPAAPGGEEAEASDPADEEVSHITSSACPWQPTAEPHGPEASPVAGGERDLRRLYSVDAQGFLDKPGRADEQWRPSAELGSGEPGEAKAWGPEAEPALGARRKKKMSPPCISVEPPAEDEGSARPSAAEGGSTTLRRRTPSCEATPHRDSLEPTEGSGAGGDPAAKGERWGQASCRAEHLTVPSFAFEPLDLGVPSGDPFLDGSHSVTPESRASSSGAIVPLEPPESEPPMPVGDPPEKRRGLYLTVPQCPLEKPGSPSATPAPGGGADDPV
Sequence of Voltage-dependent T-type calcium channel subunit alpha-1H (Rattus norvegicus, UniProt Q9EQ60) (Q9EQ60 whole entry): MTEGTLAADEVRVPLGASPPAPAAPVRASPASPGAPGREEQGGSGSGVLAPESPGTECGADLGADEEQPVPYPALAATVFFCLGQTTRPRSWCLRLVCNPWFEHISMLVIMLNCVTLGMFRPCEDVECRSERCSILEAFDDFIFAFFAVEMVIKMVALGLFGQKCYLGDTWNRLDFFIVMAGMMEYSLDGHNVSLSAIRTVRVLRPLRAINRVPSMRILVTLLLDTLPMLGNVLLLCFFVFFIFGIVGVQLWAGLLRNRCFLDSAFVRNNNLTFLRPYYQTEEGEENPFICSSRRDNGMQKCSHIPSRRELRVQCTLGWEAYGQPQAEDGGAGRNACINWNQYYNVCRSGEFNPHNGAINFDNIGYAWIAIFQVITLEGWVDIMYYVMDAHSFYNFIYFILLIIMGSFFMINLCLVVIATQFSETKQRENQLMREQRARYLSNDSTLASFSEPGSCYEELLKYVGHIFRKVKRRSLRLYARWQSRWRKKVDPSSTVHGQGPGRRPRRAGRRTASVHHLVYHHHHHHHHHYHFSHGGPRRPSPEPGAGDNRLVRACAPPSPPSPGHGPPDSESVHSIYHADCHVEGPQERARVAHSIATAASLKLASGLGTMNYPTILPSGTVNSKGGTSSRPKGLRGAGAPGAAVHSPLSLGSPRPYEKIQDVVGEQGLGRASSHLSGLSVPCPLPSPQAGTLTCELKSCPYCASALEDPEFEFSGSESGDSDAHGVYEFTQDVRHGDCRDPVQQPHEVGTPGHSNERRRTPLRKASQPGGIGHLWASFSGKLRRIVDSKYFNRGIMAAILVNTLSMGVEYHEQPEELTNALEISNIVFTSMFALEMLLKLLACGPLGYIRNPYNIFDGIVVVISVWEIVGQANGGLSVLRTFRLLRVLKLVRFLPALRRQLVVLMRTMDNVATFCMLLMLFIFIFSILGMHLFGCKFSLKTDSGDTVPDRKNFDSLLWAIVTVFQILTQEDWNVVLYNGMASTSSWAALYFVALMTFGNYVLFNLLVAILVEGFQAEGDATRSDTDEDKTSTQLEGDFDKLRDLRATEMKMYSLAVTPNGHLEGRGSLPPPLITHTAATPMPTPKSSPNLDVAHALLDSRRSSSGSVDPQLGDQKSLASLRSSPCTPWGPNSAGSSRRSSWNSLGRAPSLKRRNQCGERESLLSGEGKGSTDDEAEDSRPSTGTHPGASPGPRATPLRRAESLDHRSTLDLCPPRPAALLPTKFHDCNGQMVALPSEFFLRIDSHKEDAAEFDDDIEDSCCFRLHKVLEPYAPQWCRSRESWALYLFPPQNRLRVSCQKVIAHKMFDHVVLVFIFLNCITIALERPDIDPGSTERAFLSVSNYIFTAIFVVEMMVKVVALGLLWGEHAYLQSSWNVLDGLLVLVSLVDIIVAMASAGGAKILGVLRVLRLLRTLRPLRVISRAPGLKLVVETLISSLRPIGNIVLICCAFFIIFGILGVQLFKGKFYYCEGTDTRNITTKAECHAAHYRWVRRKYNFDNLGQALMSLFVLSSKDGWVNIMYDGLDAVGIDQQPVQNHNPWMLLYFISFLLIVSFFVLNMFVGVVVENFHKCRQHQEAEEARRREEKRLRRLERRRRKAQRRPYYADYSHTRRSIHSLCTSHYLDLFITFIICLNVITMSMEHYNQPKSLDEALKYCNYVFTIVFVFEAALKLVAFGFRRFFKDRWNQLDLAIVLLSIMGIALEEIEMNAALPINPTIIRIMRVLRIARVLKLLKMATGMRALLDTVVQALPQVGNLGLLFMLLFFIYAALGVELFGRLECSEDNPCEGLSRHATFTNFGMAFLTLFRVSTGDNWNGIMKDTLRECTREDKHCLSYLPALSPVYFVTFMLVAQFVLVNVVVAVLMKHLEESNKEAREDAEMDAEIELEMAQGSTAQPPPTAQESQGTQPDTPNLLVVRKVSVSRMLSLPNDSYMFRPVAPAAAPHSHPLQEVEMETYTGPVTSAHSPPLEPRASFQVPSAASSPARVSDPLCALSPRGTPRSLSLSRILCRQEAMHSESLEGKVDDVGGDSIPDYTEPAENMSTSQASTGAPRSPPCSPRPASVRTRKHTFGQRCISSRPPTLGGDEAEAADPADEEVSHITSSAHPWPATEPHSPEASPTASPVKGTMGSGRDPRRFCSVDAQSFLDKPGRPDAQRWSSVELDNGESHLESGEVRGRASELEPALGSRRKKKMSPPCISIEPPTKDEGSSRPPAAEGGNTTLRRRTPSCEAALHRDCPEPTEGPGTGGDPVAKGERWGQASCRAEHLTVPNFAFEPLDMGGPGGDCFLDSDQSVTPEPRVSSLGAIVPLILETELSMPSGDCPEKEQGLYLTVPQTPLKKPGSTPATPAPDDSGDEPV

In the case of `NCC1(CC(=O)O)CCCCC1`, the result with Rattus norvegicus [1] was Active.

On to `O=C(c1cccc(S(=O)(=O)Nc2ccccc2F)c1)N1CCN2CCC[C@@H]2C1`, for which the remaining at 0.5 h, 1 µM in series [2] was determined as 68%. In series [3], the Vd at 5 µmol/kg turned out to be 0.65 L/kg. Moreover, the clearance in series [4] is 29.8 mL/min/kg.

As a reminder, the IC50 is the concentration needed to halve the response being measured. As for `CC1CC(C)CN(C(=O)c2cccc(S(=O)(=O)N3c4ccccc4CC3C)c2)C1` (configuration not stated), in series [5], the IC50 was determined as 3 µM. For the same molecule, the remaining at 0.5 h, 1 µM in [2] amounted to 0.3%.

`CN(c1ccccc1F)S(=O)(=O)c1cc(C(=O)N2CCN3CCC[C@@H]3C2)c(Cl)cc1F`: the results for the remaining at 0.5 h, 1 µM in [2] and in [6] were 0.04% and < 0.01%, respectively.

As to `O=C(c1cc(S(=O)(=O)Nc2ccccc2F)c(Cl)cc1Cl)N1CCN2CCC[C@@H]2C1`, in series [5], the IC50 came to 19 µM.

For `C[C@@H]1CN(C(=O)c2cccc(S(=O)(=O)Nc3ccc(F)cc3)c2)C[C@H](C)O1`, the remaining at 0.5 h, 1 µM in series [2] was 46%. The Vd at 5 µmol/kg in [3] turned out to be 0.75 L/kg. For the same molecule, the clearance in [4] was 27.7 mL/min/kg.

For orientation: inhibition means the share of the control response that was lost under treatment. As for `O=C(c1cccc(S(=O)(=O)Nc2cccc(F)c2F)c1)N1CCN2CCC[C@@H]2C1`, in series [4], the clearance was 20.2 mL/min/kg. Further, the inhibition in series [7] was < 30%.

On to `CC1Cc2ccccc2N1S(=O)(=O)c1cccc(C(=O)NCC2CCCCC2)c1` (configuration not stated), for which, in series [5], the IC50 was determined as 5 µM. In series [2], the remaining at 0.5 h, 1 µM was 0.1%.

In series [4], `O=C(c1cccc(S(=O)(=O)Nc2cccc(F)c2F)c1)N1CCN2CCC[C@H]2C1` showed a clearance of 38 mL/min/kg. Also, the inhibition in series [7] is < 30%.

As to `O=C(c1cccc(S(=O)(=O)Nc2ccccc2C(F)(F)F)c1)N1CCN2CCC[C@@H]2C1`, the clearance in [4] is 12.3 mL/min/kg. Besides, the inhibition in [7] was < 30%.

`O=C(c1cccc(S(=O)(=O)Nc2c(F)cccc2F)c1)N1CCN2CCC[C@@H]2C1` had a clearance in series [4] of 15.3 mL/min/kg. Moreover, in series [7], the inhibition is < 30%.

The solubility is the dissolved amount per volume that the medium holds. What is called EC50 is the concentration giving half of the maximal effect. The term ED50 denotes the midpoint of the dose-response relation. Consider `Cl.O=C(c1cc(S(=O)(=O)Nc2ccccc2F)c(F)cc1Cl)N1CCN2CCC[C@@H]2C1`, for which the IC50 in [5] came to 2.3 µM; in [10] it was 7.6 µM. The remaining at 0.5 h, 1 µM in [2] was determined as 81%; in series [6], 95%; in series [8], 100%; in series [9], 88%. Besides, the Vd at 5 µmol/kg in series [3] came to 2.7 L/kg. The molecule further had a clearance in series [4] of 9.17 mL/min/kg. For the same molecule, the solubility is 489 µM in [11] and > 9.5 mM in series [12]. The fraction unbound in [13] was 0.111; in series [14], 0.148. Further, the EC50 in [15] and in series [16] was > 10 µM throughout. Besides, the Activity entry is “Dose-dependent effect” with Rattus norvegicus [17]; “Non-toxic” in the series on Rattus norvegicus [20]; “Non-toxic” with Rattus norvegicus [21]; “Non-toxic” in the series with Rattus norvegicus [22]; “Non-toxic” in the series with Rattus norvegicus [23]. Besides, the median effective dose (ED50) in the series on Rattus norvegicus [18] was > 300 mg kg-1 and 114 ug ml-1; in the series with Rattus norvegicus [19], > 300 mg kg-1 and 114 ug ml-1. The molecule also showed a Cp in the series on Plasma of 43.9 µg/mL.

In [4], `O=C(c1cccc(S(=O)(=O)Nc2ccccc2F)c1)N1CCN2CCC[C@H]2C1` had a clearance of 56 mL/min/kg. Besides, the inhibition in series [7] is < 30%.

Take `O=C(c1cccc(S(=O)(=O)Nc2ccc(C(F)(F)F)cc2)c1)N1CCN2CCC[C@@H]2C1`: in series [4], the clearance was 7.5 mL/min/kg. Moreover, the inhibition in series [7] was < 30%.

With `O=C(c1cccc(S(=O)(=O)Nc2ccc(C(F)(F)F)cc2)c1)N1CCN2CCC[C@H]2C1`, the clearance in series [4] was 13.5 mL/min/kg. The inhibition in [7] was < 30%.

In [4], `O=C(c1cccc(S(=O)(=O)Nc2ccccc2Cl)c1)N1CCN2CCC[C@@H]2C1` gave a clearance of 32.2 mL/min/kg. Besides, the inhibition in [7] is < 30%.
